Measured values reported in paper PMC10704437, “Sterol-activated amyloid beta fibril formation” (The Journal of Biological Chemistry, 2023).
Where “and” joins values, the source holds several entries; their conditions need not be identical. Identical values can stand only once. Like-named read-outs stand apart in the source and are kept apart here.

Columns and labels:
Aβ42 [1] = molecular target: T1, Aβ42 (Homo sapiens, UniProt P05067); assay: Sterol binding to Aβ42, pre-steady-state stopped-flow fluorescence; details: for kon: calculated by dividing koff by Kd; for koff: determined in DHE displacement studies, stopped-flow, 25 °C
T1 construct: Small red spheres mark the Aβ42 peptide C-terminal residue, A42; purchased Sigma-Aldrich Corp
T1 sequence (P05067 672-713 limits assumed): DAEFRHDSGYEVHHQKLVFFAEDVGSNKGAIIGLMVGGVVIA
Experimental: To establish the rates at which Aβ42•ligand complexes form and dissociate, the rate constants governing the binding reactions were determined. DHE binding was monitored in real time using a stopped-flow fluorimeter via binding-induced changes in DHE fluorescence. The reactions are pseudo first order in [ligand] and kobs was obtained by least-squares fitting progress curves to a single-exponential equation ([44], [45]). kobs values were determined (in triplicate) at a series of Aβ42 concentrations and the averaged values are plotted versus [Aβ42] in Figure 2B. kon and koff are given by the slope and intercept of the kobs-versus-[Aβ42] plot obtained by linear least-square fitting ([44], [45]). […] The rate constants are compiled in Table 1.
Figure 2 Sterol binding to Aβ42—pre-steady state studies.A, DHE binding. Reactions were monitored via binding induced changes in DHE fluorescence using a stopped-flow fluorimeter (λex = 325, λem > 400 nm). Fluorescence intensity, I, is reported relative to the intensity in the absence of ligand, Io. […] C was rapidly mixed (1:1, v/v) with a solution identical except that Aβ42 was replaced by DHE (40 nM, 2.7 × Kd). The bindingreaction curve shown is the average of five independent progress curves. The averaged curve was a least-squares fit to a single-exponential equation and the resulting best fit (indicated by the red line) yielded kobs. B, DHE kon and koff. kobs values obtained as in Panel A were determined in triplicate at varying Aβ42 concentrations and the averaged values are shown plotted versus [Aβ42]. kon and koff are given by the slope and intercept of a linear least-squares fit of the kobsversus [Aβ42] plot. C and D, CH and CS displacement reactions.
Pre-steady-state binding of sterols to Aβ42 was monitored via the binding-induced change in DHE fluorescence (λex = 325, λem > 400 nm) using an Applied Photophysics SX20 stopped-flow fluorimeter.
Three progress curves (each an average of five independently obtained curves) were collected at five separate Aꞵ42 concentrations. The observed rate constant (kobs) at a given [Aβ42] was obtained by fitting the average of the three curves to a single-exponential equation using Pro-K software ([75]). kon and koff were obtained from the slopes and intercepts predicted by linear least-squares analysis of kobs versus [Aβ42] plots.
C. […] Progress curves were determined in triplicate and koff was obtained by least-squares fitting the averaged curves to a single-exponential equation using Pro-K.

Aβ42 [2] = molecular target: T1, Aβ42; assay: Aβ42 fibril formation monitored by ThT fluorescence, NEF model fitting; assay type: biochemical; details: for Nucleation rate constant, NEF model: NEF fit of fibril formation progress curves; for Nucleation rate constant, NEF model / Elongation rate constant, forward / Elongation rate constant, reverse / Fragmentation rate constant: Aβ42 1.0 μM, ligand at saturation; for Elongation rate constant, forward / Elongation rate constant, reverse / Fragmentation rate constant: NEF fit; for increase of nucleation rate constant relative to the unliganded peptide: from NEF nucleation rate constants
Excerpt: Reactions were initiated by the addition of ligand (at saturation) or buffer (control) to a fresh solution of Aβ42 and ThT (see Fig. 3 Legend). Such progress curves are often fit using a generalized sigmoidal function and compared on the basis of lag-time length and elongation-phase slope. Here, progress curves are fit numerically to the Nucleation-Elongation-Fragmentation (NEF) model ([51], [52]), using Copasi ([53]). Numerical modeling allows one to assess whether a particular mechanism adequately predicts experimental behavior and provides rate constants for the steps of the mechanism that can be compared across peptide•ligand combinations to identify where and to what extent ligands induce change.
Figure 3 Formation of CH•, CS•, and unliganded Aβ42fibrils.A, fibril formation. Fibril formation was monitored via the fluorescence increase (λex = 450 nm, λem = 482 nm) associated with the binding of ThT, which binds Aβ oligomers ≥5-mers. […] C. Progress curves were performed in triplicate, averaged, and fit numerically using the NEF polymerization model (see Results and discussion).
The NEF model assumes a slow, energetically unfavorable event generates a polymerization nucleus that rapidly adds monomers (at the elongation rate) to form oligomers. The reaction accelerates in a geometric fashion as oligomer fragmentation produces new nuclei. The tenets of the model are embodied in Equations (1), (2), (3), which form the basis of the Copasi model ([53]).(1) 2m⇆knucrevknucforn (2) m+n⇆kelrevkelforo+n (3) o→kfragn where m is monomer concentration, n is the concentration of surfaces capable of adding monomer, and o is the concentration of peptides that are in the interior of the polymer and thus cannot add monomers. knuc, kel, and kfrag are the nucleation, elongation, and fragmentation rate constants.
Fibril formation was monitored via the binding-induced change in ThT fluorescence (λex = 450 nm, λem = 482 nm) ([76]). […] C. Reagents (peptide, CH, CS, and ThT) were prepared immediately prior to use. CH and CS were solubilized in neat DMSO. Progress curves were determined in triplicate, and data were fit using the Nucleation-Fragmentation-Elongation (NEF) model (see Results and discussion).

[3] = design: method as in PMID 4525165; details: reported in 1973; cited from earlier work
Aβ42 [4] = molecular target: T1, Aβ42; assay: Aβ42 fibril formation versus CS percentage (ThT); assay type: biochemical; details: [CS]+[CH] 20 μM, Aβ42 1.0 μM
Experimental: To experimentally assess the potential impact of CS on fibril formation in vivo, fibril synthesis was monitored over a series of CS/CH ratios that span the physiological range.
Figure 8 Aβ42fibril formation versus CS percentage. Fibril formation was detected via binding-induced changes in ThT fluorescence (λex = 450 nm, λem = 482 nm). Reaction conditions: Aβ42 (1.0 μM), CS percent (as indicated), [CS] + [CH] (20 μM), ThT (30 μM), DMSO (0.5 % v/v), K2PO4 (50 mM), pH 7.4, 25 °C ± 2 deg. C. Progress curves were performed in triplicate and averaged data are shown. Lines passing through the data represent the behavior predicted by the NEF model using the Table 2 rate constants.

Kd (Aβ42 [1]; ratio of rate constants, read-out: koff/kon) [nM]	Structure (SMILES)	kon (Aβ42 [1]) [M⁻¹ s⁻¹]	koff (Aβ42 [1]) [s⁻¹]	Nucleation rate constant, NEF model (Aβ42 [2])	Elongation rate constant, forward (Aβ42 [2])	Elongation rate constant, reverse (Aβ42 [2])	Fragmentation rate constant (Aβ42 [2])	increase of nucleation rate constant relative to the unliganded peptide (Aβ42 [2])	critical micelle concentration (CMC) [3] [nM]	Kd (Aβ42 [1]) [nM]	CS/CH nucleation rate constant ratio, experimental (Aβ42 [2]; CS•Aβ42 versus CH•Aβ42, calculated using Table 2 nucleation rate constants)	fibril formation lag-time (Aβ42 [4]; 0.1% CS)	fibril formation lag-time (Aβ42 [4]; 1% CS)	fibril formation lag-time (Aβ42 [4]; 10% CS)
120	CC(C)CCC[C@@H](C)[C@H]1CC[C@H]2[C@@H]3CC=C4C[C@@H](O)CC[C@]4(C)[C@H]3CC[C@]12C [CH, cholesterol]	2.1e+07	2.5	6.9 (0.2) × 10^−14 nM^−1 s^−1	830 (20) μM^−1 s^−1	98 (1) s^−1	5.6 (0.3) × 10^−11 s^−1	~49 fold	25 to 40	–	–	–	–	–
–	CC(C)CCC[C@@H](C)[C@H]1CC[C@H]2[C@@H]3CC=C4C[C@@H](OS(=O)(=O)O)CC[C@]4(C)[C@H]3CC[C@]12C [CS, cholesterol 3-sulfate]	2.4e+07	0.88	1.8 (0.3) × 10^−11 nM^−1 s^−1	860 (60) μM^−1 s^−1	85 (1) s^−1	4.3 (0.7) × 10^−11 s^−1	~13,000 fold	–	36	261 fold and 260 fold	shortens by several hours	nearly halved	approaches that of pure CS
